The text below walks through data of PubChem BioAssay AID1745844 (Carcinogenic Potency Database (CPDB), 2022).

Active and inactive are the calls of the source. The rule behind the calls is not given here.

This series has as its system rodent lifetime carcinogenesis bioassay, tumor incidence TD50. The series is described as follows: carcinogenic potency in animals, long-term in vivo studies, CPDB compilation (AID 1745844).
Setting [1] is: mouse, strain B6C3F1, females, in feed, site: liver, lesion: hepatocellular carcinoma, dosed 96 weeks, study length 104 weeks.
[2] abbreviates: mouse, strain B6C3F1, males, in feed, site: liver, lesion: hepatocellular carcinoma, dosed 96 weeks, study length 104 weeks.

For orientation: TD50 means the dose at which the toxic effect under study appears in half of the subjects. Turning to `O`, the TD50 reads like this: (mouse, strain B6C3F1, females, in drinking water, site: any site (literature study), lesion: several types, types named in the paper, dosed 104 weeks, study length 105 weeks) 806 mg/kg/day (inactive); (mouse, strain B6C3F1, females, in drinking water, site: liver, lesion: hepatocellular adenoma + hepatoblastoma + hepatocellular carcinoma, dosed 104 weeks, study length 105 weeks) 4410 mg/kg/day; (mouse, strain B6C3F1, females, in drinking water, site: lung, lesion: alveolar/bronchiolar adenoma + alveolar/bronchiolar carcinoma, dosed 104 weeks, study length 105 weeks) 13400 mg/kg/day; (mouse, strain B6C3F1, females, in feed, site: liver, lesion: hemangiosarcoma, dosed 96 weeks, study length 104 weeks) 57500 mg/kg/day (inactive); (mouse, strain B6C3F1, females, in feed, site: liver, lesion: hyperplastic nodule, dosed 96 weeks, study length 104 weeks) 60500 mg/kg/day (inactive); (mouse, strain B6C3F1, females, in feed, site: lung, lesion: adenocarcinoma, dosed 96 weeks, study length 104 weeks) 260000 mg/kg/day (inactive). Besides, the TD50 reads like this: (mouse, strain B6C3F1, females, in feed, site: lung, lesion: adenoma, dosed 96 weeks, study length 104 weeks) 100000 mg/kg/day (inactive); (mouse, strain B6C3F1, males, in drinking water, site: all sites, lesion: hemangioma, dosed 103 weeks, study length 103 weeks) 3470 mg/kg/day (inactive); (mouse, strain B6C3F1, males, in feed, site: all sites, lesion: lymphoma and leukemia, combined, dosed 96 weeks, study length 104 weeks) 10700 mg/kg/day (inactive); (mouse, strain B6C3F1, males, in feed, site: liver, lesion: hemangioma, dosed 96 weeks, study length 104 weeks) 24400 mg/kg/day (inactive); (mouse, strain B6C3F1, males, in feed, site: liver, lesion: hemangiosarcoma, dosed 96 weeks, study length 104 weeks) 46700 mg/kg/day (inactive); (mouse, strain B6C3F1, males, in feed, site: lung, lesion: adenoma, dosed 96 weeks, study length 104 weeks) 87600 mg/kg/day (inactive). Also, the carcinogen call by setting is: (mouse, strain B6C3F1, females, in feed, site: all sites, lesion: lymphoma and leukemia, combined, dosed 96 weeks, study length 104 weeks) “negative (inactive)”; (mouse, strain B6C3F1, females, in feed, site: liver, lesion: hemangioma, dosed 96 weeks, study length 104 weeks) “negative (inactive)”; under setting [1], “negative (inactive)”; under setting [2], “negative (inactive)”; (mouse, strain B6C3F1, males, in feed, site: liver, lesion: hyperplastic nodule, dosed 96 weeks, study length 104 weeks) “negative (inactive)”; (mouse, strain B6C3F1, males, in feed, site: lung, lesion: adenocarcinoma, dosed 96 weeks, study length 104 weeks) “negative (inactive)”. The carcinogen call by setting is: (rat, strain Fischer 344, females, in drinking water, site: any site (literature study), lesion: several types, types named in the paper, dosed 105 weeks, study length 105 weeks) “negative (inactive)”; (rat, strain Fischer 344, males, in drinking water, site: any site (literature study), lesion: several types, types named in the paper, dosed 104 weeks, study length 104 weeks) “negative (inactive)”.

`c1ccc2c(c1)[nH]c1ccccc12`: the TD50 runs as follows: (mouse, strain B6C3F1, females, in feed, site: forestomach, lesion: papilloma, dosed 96 weeks, study length 104 weeks) 1290 mg/kg/day; (mouse, strain B6C3F1, females, in feed, site: forestomach, lesion: several types, types named in the paper, dosed 96 weeks, study length 104 weeks) 1960 mg/kg/day; under setting [1], 102 mg/kg/day; (mouse, strain B6C3F1, males, in feed, site: forestomach, lesion: papilloma, dosed 96 weeks, study length 104 weeks) 7030 mg/kg/day; (mouse, strain B6C3F1, males, in feed, site: forestomach, lesion: several types, types named in the paper, dosed 96 weeks, study length 104 weeks) 2790 mg/kg/day; (mouse, strain B6C3F1, males, in feed, site: forestomach, lesion: squamous-cell carcinoma, dosed 96 weeks, study length 104 weeks) 4940 mg/kg/day. Also, the TD50 under setting [2] was 424 mg/kg/day.

`Clc1ccc(C(c2ccccc2Cl)C(Cl)Cl)cc1` (configuration not stated): the TD50 is, setting by setting: (mouse, strain B6AKF1, females, oral dosing, site: any site (literature study), lesion: several types, types named in the paper, dosed 76 weeks, study length 76 weeks) 102 mg/kg/day; (mouse, strain B6AKF1, females, oral dosing, site: lung, lesion: adenoma, dosed 76 weeks, study length 76 weeks) 236 mg/kg/day; (mouse, strain B6AKF1, males, oral dosing, site: any site (literature study), lesion: several types, types named in the paper, dosed 76 weeks, study length 76 weeks) 187 mg/kg/day; (mouse, strain B6AKF1, males, oral dosing, site: lung, lesion: adenoma, dosed 76 weeks, study length 76 weeks) 414 mg/kg/day; (mouse, strain B6AKF1, males, oral dosing, site: lung, lesion: carcinoma, dosed 76 weeks, study length 76 weeks) 467 mg/kg/day; (mouse, strain B6C3F1, males, oral dosing, site: all sites, lesion: reticulum-cell sarcoma, dosed 76 weeks, study length 76 weeks) 82.1 mg/kg/day. The TD50 amounted to 38.5 mg/kg/day (mouse, strain B6C3F1, males, oral dosing, site: any site (literature study), lesion: several types, types named in the paper, dosed 76 weeks, study length 76 weeks); 147 mg/kg/day (mouse, strain B6C3F1, males, oral dosing, site: liver, lesion: hepatoma, dosed 76 weeks, study length 76 weeks); 467 mg/kg/day (mouse, strain B6C3F1, males, oral dosing, site: lung, lesion: adenoma, dosed 76 weeks, study length 76 weeks).

For `CCCCCNN`, the TD50 runs as follows: (mouse, strain Swiss albino, females, in drinking water, site: blood vessels, lesion: angioma, dosed 94 weeks, study length 94 weeks) 71.9 mg/kg/day; (mouse, strain Swiss albino, females, in drinking water, site: blood vessels, lesion: angiosarcoma, dosed 94 weeks, study length 94 weeks) 82.2 mg/kg/day; (mouse, strain Swiss albino, females, in drinking water, site: blood vessels, lesion: several types, types named in the paper, dosed 94 weeks, study length 94 weeks) 35.5 mg/kg/day; (mouse, strain Swiss albino, females, in drinking water, site: liver, lesion: several types, types named in the paper, dosed 94 weeks, study length 94 weeks) 223 mg/kg/day; (mouse, strain Swiss albino, females, in drinking water, site: lung, lesion: adenocarcinoma, dosed 94 weeks, study length 94 weeks) 18.7 mg/kg/day; (mouse, strain Swiss albino, females, in drinking water, site: lung, lesion: adenoma, dosed 94 weeks, study length 94 weeks) 7.95 mg/kg/day. Moreover, the TD50 is, setting by setting: (mouse, strain Swiss albino, females, in drinking water, site: lung, lesion: several types, types named in the paper, dosed 94 weeks, study length 94 weeks) 5.87 mg/kg/day; (mouse, strain Swiss albino, males, in drinking water, site: blood vessels, lesion: several types, types named in the paper, dosed 94 weeks, study length 94 weeks) 65.6 mg/kg/day; (mouse, strain Swiss albino, males, in drinking water, site: liver, lesion: several types, types named in the paper, dosed 94 weeks, study length 94 weeks) 271 mg/kg/day; (mouse, strain Swiss albino, males, in drinking water, site: lung, lesion: adenoma, dosed 94 weeks, study length 94 weeks) 30 mg/kg/day; (mouse, strain Swiss albino, males, in drinking water, site: lung, lesion: several types, types named in the paper, dosed 94 weeks, study length 94 weeks) 46.9 mg/kg/day.

With `Nc1ccc(N)c(Cl)c1`, the TD50 (mouse, strain B6C3F1, females, in feed, site: any site (literature study), lesion: several types, types named in the paper, dosed 96 weeks, study length 104 weeks) is 1430 mg/kg/day (inactive); the TD50 (mouse, strain B6C3F1, females, in feed, site: liver, lesion: hepatocellular adenoma + hepatocellular carcinoma + neoplastic nodule, dosed 96 weeks, study length 104 weeks) came to 1590 mg/kg/day; the TD50 (mouse, strain B6C3F1, females, in feed, site: lung, lesion: alveolar/bronchiolar adenoma + alveolar/bronchiolar carcinoma, dosed 96 weeks, study length 104 weeks) was determined as 3330 mg/kg/day; the TD50 (mouse, strain B6C3F1, males, in feed, site: any site (literature study), lesion: several types, types named in the paper, dosed 95 weeks, study length 104 weeks) was 4380 mg/kg/day (inactive); the TD50 (mouse, strain B6C3F1, males, in feed, site: liver, lesion: hepatocellular adenoma + hepatocellular carcinoma + neoplastic nodule, dosed 95 weeks, study length 104 weeks) is 1310 mg/kg/day; the TD50 (rat, strain Fischer 344, females, in feed, site: liver, lesion: hepatocellular adenoma + hepatocellular carcinoma + neoplastic nodule, dosed 105 weeks, study length 105 weeks) was determined as 3600 mg/kg/day. The TD50 by setting is: (rat, strain Fischer 344, males, in feed, site: any site (literature study), lesion: several types, types named in the paper, dosed 105 weeks, study length 105 weeks) 244 mg/kg/day (inactive); (rat, strain Fischer 344, males, in feed, site: liver, lesion: hepatocellular adenoma + hepatocellular carcinoma + neoplastic nodule, dosed 105 weeks, study length 105 weeks) 665 mg/kg/day. For the setting “rat, strain Fischer 344, females, in feed, site: any site (literature study), lesion: several types, types named in the paper, dosed 105 weeks, study length 105 weeks”, the carcinogen call is “negative (inactive)”.

Take `CCOc1ccc(NC(N)=O)cc1`: the TD50 (rat, strain Osborne-Mendel, both sexes, in feed, site: liver, lesion: several types, types named in the paper, dosed 104 weeks, study length 104 weeks) is 537 mg/kg/day.
